The values that follow come from ChEMBL document CHEMBL4417631, “Oral peptide inhibitors of interleukin-23 receptor and their use to treat inflammatory bowel diseases” (2017).

One may read the IC50 as the point on the concentration scale where inhibition reaches its midpoint. As usually defined, the half-life is the time needed for the level to fall by half in the phase considered. Low values mean fast loss, high ones slow loss.

Data set [1] has as its target T1, Interleukin-23 receptor (Homo sapiens, UniProt Q5VWK5).
T1 sequence (Q5VWK5 whole entry): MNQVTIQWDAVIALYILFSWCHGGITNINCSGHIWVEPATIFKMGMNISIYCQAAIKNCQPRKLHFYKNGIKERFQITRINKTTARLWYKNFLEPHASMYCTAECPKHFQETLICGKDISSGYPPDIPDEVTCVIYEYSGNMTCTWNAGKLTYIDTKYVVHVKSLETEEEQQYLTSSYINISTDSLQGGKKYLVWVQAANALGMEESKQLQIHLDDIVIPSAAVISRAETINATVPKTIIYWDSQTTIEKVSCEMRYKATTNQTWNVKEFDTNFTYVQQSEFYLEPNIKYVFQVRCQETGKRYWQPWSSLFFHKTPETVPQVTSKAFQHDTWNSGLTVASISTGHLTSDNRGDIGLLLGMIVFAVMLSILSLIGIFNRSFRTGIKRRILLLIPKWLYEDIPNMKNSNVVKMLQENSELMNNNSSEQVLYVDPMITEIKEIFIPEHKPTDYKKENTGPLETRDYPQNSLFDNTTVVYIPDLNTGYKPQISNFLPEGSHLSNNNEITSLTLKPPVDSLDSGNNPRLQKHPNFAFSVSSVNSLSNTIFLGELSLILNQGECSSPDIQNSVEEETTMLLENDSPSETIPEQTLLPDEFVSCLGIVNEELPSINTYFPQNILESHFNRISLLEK
Briefly: Inhibition of interleukin-23 binding to human interleukin-23 receptor incubated for 2 hrs by competitive binding ELISA. Background: An ELISA detects its analyte on a solid surface through an enzyme-linked reagent.

Data set [2] deals with T1, Interleukin-23 receptor. The data set is described as follows: Inhibition of interleukin-23 receptor in human DB cells assessed as reduction in IL-23-stimulated STAT3 phosphorylation incubated for 30 mins by HTRF assay. Type of data set: cell-based.
Data set [3] can be described thus: Half life in simulated gastric fluid at 20 uM by LC-MS/MS analysis. Type of data set: ADME.
Data set [4] can be described thus: Half life in simulated intestinal fluid at 20 uM by LC-MS/MS analysis. Type of data set: ADME.

A value given as a limit tells only on which side of the number the result lay.

`CC(=O)NCCCC[C@H](NC(=O)C(C)(C)NC(=O)[C@H](Cc1ccc2ccccc2c1)NC(=O)[C@H](Cc1ccc(OCCN)cc1)NC(=O)[C@@H](NC(=O)[C@H](CCC(N)=O)NC(=O)[C@H](Cc1c[nH]c2ccccc12)NC(=O)[C@@H](NC(=O)[C@H](CCC(N)=O)NC(=O)[C@@H](NC(C)=O)C(C)(C)S)[C@@H](C)O)C(C)(C)S)C(=O)N[C@@H](CC(N)=O)C(=O)N[C@@H](CCC(N)=O)C(N)=O`: the 50% inhibitory concentration (IC50) on Interleukin-23 receptor [1] and on Interleukin-23 receptor [2] was below 0.01 µM in each case. For the same molecule, the half-life at 20 µM in data set [3] and in data set [4] was above 6 h throughout.
Consider `CC(=O)NCCCC[C@H](NC(=O)[C@](C)(CC(C)C)NC(=O)[C@H](Cc1ccc2ccccc2c1)NC(=O)[C@H](Cc1ccc(OCCNC(C)=O)cc1)NC(=O)[C@@H](NC(=O)[C@H](CCC(N)=O)NC(=O)[C@H](Cc1c[nH]c2ccccc12)NC(=O)[C@@H](NC(=O)[C@H](CCC(N)=O)NC(=O)[C@@H](NC(C)=O)C(C)(C)S)[C@@H](C)O)C(C)(C)S)C(=O)N[C@@H](CC(N)=O)C(=O)N[C@@H](CC(N)=O)C(N)=O`, for which the 50% inhibitory concentration (IC50) at Interleukin-23 receptor [1] and at Interleukin-23 receptor [2] was below 0.01 µM throughout. Further, the half-life at 20 µM in data set [3] and in data set [4] was above 6 h throughout.
In the case of `CC(=O)NCCCC[C@H](NC(=O)C(C)(C)NC(=O)[C@H](Cc1ccc2ccccc2c1)NC(=O)[C@H](Cc1ccc(OCCNC(C)=O)cc1)NC(=O)[C@@H](NC(=O)[C@H](CCC(N)=O)NC(=O)[C@H](Cc1c[nH]c2ccccc12)NC(=O)[C@@H](NC(=O)[C@H](CCC(N)=O)NC(=O)[C@@H](NC(C)=O)C(C)(C)S)[C@@H](C)O)C(C)(C)S)C(=O)N[C@@H](CC(N)=O)C(=O)N[C@@H](CC(N)=O)C(N)=O`, the IC50 at Interleukin-23 receptor [1] and on Interleukin-23 receptor [2] was below 0.01 µM in each case. Besides, the half-life at 20 µM in data set [3] and in data set [4] was above 6 h throughout.
Take `CC(=O)NCCCC[C@H](NC(=O)[C@](C)(CCCCN)NC(=O)[C@H](Cc1c[nH]c2ccccc12)NC(=O)[C@H](Cc1ccc(O)cc1)NC(=O)[C@@H](NC(=O)[C@H](CCC(N)=O)NC(=O)[C@H](Cc1c[nH]c2ccccc12)NC(=O)[C@@H](NC(=O)[C@H](CCC(N)=O)NC(=O)[C@@H](NC(C)=O)C(C)(C)S)[C@@H](C)O)C(C)(C)S)C(=O)N[C@@H](CC(N)=O)C(=O)NCC(N)=O`: the results for the IC50 at Interleukin-23 receptor [1] and on Interleukin-23 receptor [2] were 0.1 to 1 µM and 0.025 to 0.1 µM, respectively. Moreover, the half-life at 20 µM in data set [3] and in data set [4] was above 6 h in each case.
For the molecule `CC(=O)N[C@H]1CCSC[C@@H](C(=O)N[C@@H](Cc2ccc(OCCN)cc2)C(=O)N[C@@H](Cc2ccc3ccccc3c2)C(=O)NC(C)(C)C(=O)N[C@@H](CCC(=O)O)C(=O)N[C@@H](CC(N)=O)C(=O)NCC(N)=O)NC(=O)[C@H](CCC(N)=O)NC(=O)[C@H](Cc2c[nH]c3ccccc23)NC(=O)[C@H]([C@@H](C)O)NC(=O)[C@H](CCC(N)=O)NC1=O`, the IC50 at Interleukin-23 receptor [1] and on Interleukin-23 receptor [2] was below 0.01 µM throughout. Further, the half-life at 20 µM was 2 to 3 h in data set [3] and below 1 h in data set [4].
Turning to `CC(=O)NCCCC[C@H](NC(=O)[C@](C)(CO)NC(=O)[C@H](Cc1ccc2ccccc2c1)NC(=O)[C@H](Cc1ccc(OCCN)cc1)NC(=O)[C@@H]1CSCC[C@H](NC(C)=O)C(=O)N[C@@H](CCC(N)=O)C(=O)N[C@@H]([C@@H](C)O)C(=O)N[C@@H](Cc2c[nH]c3ccccc23)C(=O)N[C@@H](CCC(N)=O)C(=O)N1)C(=O)N[C@@H](CC(N)=O)C(=O)NCC(N)=O`, the IC50 on Interleukin-23 receptor [1] and on Interleukin-23 receptor [2] was below 0.01 µM each time. Also, the half-life at 20 µM in data set [3] was 2 to 3 h; in data set [4], below 1 h.
As to `CC(=O)N[C@H](C(=O)N[C@@H](CCC(N)=O)C(=O)N[C@H](C(=O)N[C@@H](Cc1c[nH]c2ccccc12)C(=O)N[C@@H](CCC(N)=O)C(=O)N[C@H](C(=O)N[C@@H](Cc1ccc(OCCN)cc1)C(=O)N[C@@H](Cc1ccc2ccccc2c1)C(=O)NC(C)(C)C(=O)N[C@@H](CCC(=O)O)C(=O)N[C@@H](CC(N)=O)C(=O)N[C@@H](CC(N)=O)C(N)=O)C(C)(C)S)[C@@H](C)O)C(C)(C)S`, the IC50 at Interleukin-23 receptor [1] and on Interleukin-23 receptor [2] was below 0.01 µM in each case. For the same molecule, the half-life at 20 µM in data set [3] and in data set [4] was above 6 h each time.
For `CC(=O)NCCCC[C@H](NC(=O)C(C)(C)NC(=O)[C@H](Cc1ccc2ccccc2c1)NC(=O)[C@H](Cc1ccc(OCCN)cc1)NC(=O)[C@@H]1CSCC[C@H](NC(C)=O)C(=O)N[C@@H](CCC(N)=O)C(=O)N[C@@H]([C@@H](C)O)C(=O)N[C@@H](Cc2c[nH]c3ccccc23)C(=O)N[C@@H](CCC(N)=O)C(=O)N1)C(=O)N[C@@H](CC(N)=O)C(=O)NCC(N)=O`, the IC50 at Interleukin-23 receptor [1] and on Interleukin-23 receptor [2] was below 0.01 µM in each case. Moreover, the half-life at 20 µM in data set [3] and in data set [4] was 1 to 2 h each time.
Turning to `CC(=O)N[C@H]1CCSC[C@@H](C(=O)N[C@@H](Cc2ccc(OCCN)cc2)C(=O)N[C@@H](Cc2c[nH]c3ccccc23)C(=O)N[C@@H](CCC(C)C)C(=O)N[C@@H](CCC(=O)O)C(=O)N[C@@H](CC(N)=O)C(=O)NCC(N)=O)NC(=O)[C@H](CCC(N)=O)NC(=O)[C@H](Cc2c[nH]c3ccccc23)NC(=O)[C@H]([C@@H](C)O)NC(=O)[C@H](CCC(N)=O)NC1=O`, the 50% inhibitory concentration (IC50) at Interleukin-23 receptor [1] is 0.01 to 0.025 µM; on Interleukin-23 receptor [2] it was below 0.01 µM. Also, the half-life at 20 µM in data set [3] and in data set [4] was below 1 h throughout.
As to `CC[C@](C)(NC(=O)[C@H](Cc1ccc2ccccc2c1)NC(=O)[C@H](Cc1ccc(OCCN)cc1)NC(=O)[C@@H]1CSCC[C@H](NC(C)=O)C(=O)N[C@@H](CCC(N)=O)C(=O)N[C@@H]([C@@H](C)O)C(=O)N[C@@H](Cc2c[nH]c3ccccc23)C(=O)N[C@@H](CCC(N)=O)C(=O)N1)C(=O)N[C@@H](CCCCNC(C)=O)C(=O)N[C@@H](CC(N)=O)C(=O)NCC(N)=O`, the IC50 on Interleukin-23 receptor [1] and at Interleukin-23 receptor [2] was below 0.01 µM each time. Besides, the results for the half-life at 20 µM in data set [3] and in data set [4] were below 1 h and 1 to 2 h, respectively.
On to `CC(=O)NCCCC[C@H](NC(=O)C(C)(C)NC(=O)[C@H](Cc1ccc2ccccc2c1)NC(=O)[C@H](Cc1ccc(OCCN)cc1)NC(=O)[C@@H]1CSCC[C@H](NC(C)=O)C(=O)N[C@@H](CCC(N)=O)C(=O)N[C@@H]([C@@H](C)O)C(=O)N[C@@H](Cc2c[nH]c3ccccc23)C(=O)N[C@@H](CCC(N)=O)C(=O)N1)C(=O)N[C@@H](CCC(N)=O)C(=O)NCC(N)=O`, for which the half-maximal inhibitory concentration (IC50) is 0.01 to 0.025 µM on Interleukin-23 receptor [1] and below 0.01 µM on Interleukin-23 receptor [2]. The half-life at 20 µM is below 1 h in data set [3] and 2 to 3 h in data set [4].
For `CC(=O)N[C@H]1CCSC[C@@H](C(=O)N[C@@H](Cc2ccc(OCCN)cc2)C(=O)N[C@@H](Cc2ccc3ccccc3c2)C(=O)N[C@@](C)(CCCCN)C(=O)N[C@@H](CCC(=O)O)C(=O)N[C@@H](CC(N)=O)C(=O)NCC(N)=O)NC(=O)[C@H](CCC(N)=O)NC(=O)[C@H](Cc2c[nH]c3ccccc23)NC(=O)[C@H]([C@@H](C)O)NC(=O)[C@H]([C@@H](C)O)NC1=O` the same measures were below 0.01 µM, below 0.01 µM, 3 to 6 h and 3 to 6 h.
For `CC(=O)NCCOc1ccc(C[C@H](NC(=O)[C@@H](NC(=O)[C@H](CCC(N)=O)NC(=O)[C@H](Cc2c[nH]c3ccccc23)NC(=O)[C@@H](NC(=O)[C@H](CCC(N)=O)NC(=O)[C@@H](NC(C)=O)C(C)(C)S)[C@@H](C)O)C(C)(C)S)C(=O)N[C@@H](Cc2ccc3ccccc3c2)C(=O)NC(C)(C)C(=O)N[C@@H](CCC(=O)O)C(=O)N[C@@H](CC(N)=O)C(=O)N[C@@H](CC(N)=O)C(N)=O)cc1` the same measures were 0.01 to 0.025 µM, below 0.01 µM, above 6 h and above 6 h.
